In data set [1] the target is T1, HexA (Homo sapiens, UniProt P06865).
T1 construct: using endogenous enzymes from healthy adult dried blood spots; from tissue; host or cells: dried blood spots from healthy adults/individuals (3.2 mm punches)
T1 sequence (P06865 89-529): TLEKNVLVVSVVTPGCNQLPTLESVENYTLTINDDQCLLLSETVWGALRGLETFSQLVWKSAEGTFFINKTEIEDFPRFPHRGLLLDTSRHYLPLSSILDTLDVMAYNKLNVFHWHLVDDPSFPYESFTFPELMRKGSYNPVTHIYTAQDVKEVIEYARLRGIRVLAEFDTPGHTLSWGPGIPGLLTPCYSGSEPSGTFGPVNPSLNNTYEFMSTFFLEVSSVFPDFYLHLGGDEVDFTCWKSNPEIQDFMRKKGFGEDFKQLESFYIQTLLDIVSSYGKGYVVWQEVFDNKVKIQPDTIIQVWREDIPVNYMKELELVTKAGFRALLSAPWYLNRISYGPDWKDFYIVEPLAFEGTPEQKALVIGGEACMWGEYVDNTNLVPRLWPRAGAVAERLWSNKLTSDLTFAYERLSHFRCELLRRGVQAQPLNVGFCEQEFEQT
T1 sequence (P07686 122-556 partner): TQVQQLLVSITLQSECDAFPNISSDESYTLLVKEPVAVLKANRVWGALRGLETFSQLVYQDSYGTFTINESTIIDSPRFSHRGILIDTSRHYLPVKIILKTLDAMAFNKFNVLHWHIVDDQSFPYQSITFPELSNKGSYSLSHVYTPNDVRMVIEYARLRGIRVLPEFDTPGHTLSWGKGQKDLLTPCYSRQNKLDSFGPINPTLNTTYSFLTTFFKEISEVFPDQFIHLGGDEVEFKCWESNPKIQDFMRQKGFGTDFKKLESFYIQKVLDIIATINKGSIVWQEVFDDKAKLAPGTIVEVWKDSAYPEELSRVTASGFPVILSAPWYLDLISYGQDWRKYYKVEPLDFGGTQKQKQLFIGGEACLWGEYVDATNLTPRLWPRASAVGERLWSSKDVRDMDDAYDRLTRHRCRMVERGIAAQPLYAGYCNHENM
Nature of the data set: Analytical range of duplex assay, HexA activity. The settings on record: dried blood spots. It counts as biochemical. How it is done: (§1) 3.2 mm punches were taken from dried blood samples. The punches were added into a well of a multiwell plate and in particular, a 1.0 mL deep-well 96-well plate. Following, 30 μL of the duplex assay cocktail described above was added to each well. The plate was sealed with a silicone sealing mat and shaken at 250 rpm for 4 hours at 37° C. in an orbital shaker incubator. After incubation, the enzymatic reaction was quenched by adding 100 μL of methanol: ethyl acetate (1:1) and mixed by pipetting up and down ˜10 times. Analytes were extracted by adding sodium chloride solution (0.5 M, 200 μL) and ethyl acetate (400 μL) to each well and mixed by pipetting up and down ˜10 times. The plate was centrifuged at 3000×g for 5 min at ambient temperature, then 200 μL of the upper ethyl acetate layer was transferred to a 96-well microplate. […]
(§2) Analytes were detected via a WATERS™ Xevo TQ triple-quadrupole mass spectrometer. […] The following MRM traces were monitored for quantitation: HexA enzymatic reaction product (456.5>356.1), HexA/B enzymatic reaction product (461.5>361.2), and internal standard (465.5>357.1). […]
The analytical range, as calculated by dividing the enzymatic activity in healthy individual samples over the enzymatic activity in a blank, was determined to be 82 for the HexA substrate and 3,400 for the HexA/B substrate.

Data set [2] is described as follows: Substrate stability over incubation in sodium formate buffer. It counts as physicochemical. The settings on record: 24 hour incubation at 37° C. in sodium formate buffer; read-out: recovery of the substrates (stability).
The next data set deals with HexA/B. Nature of the data set: Enzyme kinetics of HexA/B with the HexA/B substrate, endogenous enzymes from healthy adult dried blood spots, LC-MS/MS detection. The format is biochemical. Conditions: read-out: Michaelis-Menten constant (Km). How it is done: as §1, with “times.” for “times. The plate was centrifuged at 3000×g for 5 min at ambient temperature, then 200 μL of the upper ethyl acetate layer was transferred to a 96-well microplate.”
as §2
Enzyme kinetics of HexA and HexA/B were measured in relationship to the HexA substrate and HexA/B substrate, respectively, using endogenous enzymes from healthy adult dried blood spots. […]
The reaction rate for each substrate at different substrate concentrations was measured and the relationship found to be hyperbolic.

Data set [3] addresses T1, HexA. Nature of the data set: Competitive inhibition: HexA activity with the HexA substrate in presence and absence of the HexA/B substrate, dried blood spots from healthy individuals. The format is biochemical. Conditions: HexA substrate in presence vs absence of HexA/B substrate. How it is done:
The HexA/B substrate binds to both HexA and HexB, whereas the HexA substrate binds to only the HexA; thus, the HexA/B substrate may theoretically block the action of HexA on the HexA substrate by competitive binding (i.e. competitive inhibition). An experiment was done to test this theory where HexA enzymatic activity was measured in dried blood spots from healthy individuals using the HexA substrate in the presence and absence of the HexA/B substrate.

Some results are limits rather than exact numbers.

For the compound `CC(=O)NC1C(Oc2ccc(NC(=O)CCN(CCCCNC(=O)c3ccccc3)C(=O)OC(C)(C)C)cc2)OC(COS(=O)(=O)O)C(O)C1O` (centres unmarked) [HexA substrate], the “analytical range (enzymatic activity in healthy individual samples over enzymatic activity in a blank)” value on HexA [1] is on record as 82. Besides, the recovery at 24 h in data set [2] is greater than 100%.

Usually Km stands for the substrate concentration at which the rate is half of its maximum. Regarding `[2H]c1c([2H])c([2H])c(C(=O)NCCCCN(CCC(=O)Nc2ccc(OC3OC(CO)C(O)C(O)C3NC(C)=O)cc2)C(=O)OC(C)(C)C)c([2H])c1[2H]` (centres unmarked) [HexA/B substrate], the Km in the data set on HexA/B was 3.06 mM. In addition, in data set [2], the recovery at 24 h is greater than 100%. Besides, the “competitive inhibition of HexA enzymatic activity on the HexA substrate” value on HexA [3] is “no competitive inhibition”.

For the origin of these results see patent US20250250608A1, “METHODS AND COMPOSITIONS FOR ASSAYING BETA-HEXOSAMINIDASE ENZYMATIC ACTIVITY VIA MASS SPECTROMETRY” (GelbChem, LLC, priority 2024, published 2025).
